Entries after “also recorded” stand apart in the source; their conditions may differ.
What was measured:
[1] = target: T1, glucocorticoid receptor (Homo sapiens, UniProt P04150); assay: Cross-reactivity, glucocorticoid receptor activation (agonist and antagonist); type: cell-based
T1 sequence (P04150 1-777): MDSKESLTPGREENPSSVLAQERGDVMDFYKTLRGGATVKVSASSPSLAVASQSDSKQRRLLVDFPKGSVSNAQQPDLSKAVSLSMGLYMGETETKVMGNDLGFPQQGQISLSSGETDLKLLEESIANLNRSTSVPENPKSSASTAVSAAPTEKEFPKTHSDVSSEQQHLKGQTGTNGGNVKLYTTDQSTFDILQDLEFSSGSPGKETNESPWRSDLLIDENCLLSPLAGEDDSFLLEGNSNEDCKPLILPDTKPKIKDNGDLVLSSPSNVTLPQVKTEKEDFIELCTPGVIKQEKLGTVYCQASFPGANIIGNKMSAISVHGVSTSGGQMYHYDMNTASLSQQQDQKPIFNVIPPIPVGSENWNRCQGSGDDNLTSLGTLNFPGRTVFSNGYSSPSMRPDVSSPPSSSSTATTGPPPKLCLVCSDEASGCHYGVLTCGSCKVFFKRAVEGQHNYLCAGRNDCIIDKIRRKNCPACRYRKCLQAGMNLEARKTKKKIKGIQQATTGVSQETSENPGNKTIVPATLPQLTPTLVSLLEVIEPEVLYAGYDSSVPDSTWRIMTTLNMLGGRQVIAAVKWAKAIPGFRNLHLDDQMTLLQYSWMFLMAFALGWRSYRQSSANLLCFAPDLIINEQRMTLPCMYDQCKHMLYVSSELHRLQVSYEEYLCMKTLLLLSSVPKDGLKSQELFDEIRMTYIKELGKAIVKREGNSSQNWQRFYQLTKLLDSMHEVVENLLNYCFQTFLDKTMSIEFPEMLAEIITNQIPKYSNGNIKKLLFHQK
Excerpt: This assay is described in further detail in U.S. Pat. Nos. 4,981,784 and 5,071,773, which are incorporated herein by reference. The co-transfection assay provides a method for identifying functional ligands (either agonists which mimic, or antagonists which inhibit, the effect of hormones) for ligand-responsive receptor proteins.
The co-transfection assay provides a mechanism to evaluate ability of a compound to function as an agonist or antagonist of the activity modulated by an intracellular receptor. The co-transfection assay mimics an in vivo system in the laboratory. In the co-transfection assay, a cloned gene for an intracellular receptor is introduced by transfection (a procedure to induce cells to take up foreign genes) into a background cell substantially devoid of endogenous intracellular receptors. This introduced gene directs the recipient cells to make the intracellular receptor protein. A second gene is also introduced (co-transfected) into the same cells in conjunction with the intracellular receptor gene. This second gene functions as a reporter for the transcription-modulating activity of the target intracellular receptor. The reporter acts as a surrogate for the products normally expressed by a gene under control of the target receptor and its natural hormone.
A preferred reporter gene is one which expresses the firefly enzyme luciferase. The co-transfection assay can detect small molecule agonists or antagonists of target intracellular receptors. Exposing the cells to an agonist ligand increases reporter activity in the transfected cells that can be conveniently measured, reflecting ligand-dependent, intracellular receptor-mediated increases in reporter transcription. To detect antagonists, the co-transfection assay is carried out in the presence of a constant concentration of an agonist known to induce a defined reporter signal. […]
Co-transfected cells are exposed to a medium to which is added the potential ligand that is being evaluated. […] Antagonist activity is evaluated by adding the candidate ligand and a known agonist to the co-transfected cells. […]

[2] = test system: T47D cells; assay: Alkaline phosphatase activity in T47D cells (induction and its inhibition); type: cell-based, human; settings: for Agonist activity, alkaline phosphatase induction: ligand alone, three days
Excerpt: The functional activities of the cyclocymopol analogues in the human breast cell line, T47D, were also investigated. T47D cells have proven to be a particularly useful model to investigate the molecular actions of sex steroids because they contain endogenous functional receptors for, and respond to, progestins, and their respective antagonists. Moreover, these cells contain exceptionally high titers of progesterone receptors and are exquisitely sensitive to the actions of progestins in a manner quite similar to their actions in normal and neoplastic mammary epithelial cells. In T47D cells, progestins induce de novo synthesis of a plasma-associated alkaline phosphatase, which has been reported to be similar, if not identical, to the alkaline phosphatase present in the normal breast and human milk. These tests were conducted according to the following illustrative example. […] For routine induction of alkaline phosphatase, cells were treated for three days with two media changes and harvested as described below. […] Nuclei were sedimented at 2500 rpm, and the supernatant was saved as cytosol. The protein content of the cytosol was assayed by the method of Bradford. Alkaline phosphatase activity was determined by incubating one volume of cell extract with three volumes of 1 mg/ml p-nitrophenol phosphate prepared in DEAM (1M diethanolamine, pH=9, containing 2 mM magnesium chloride) at room temperature for 20 min. At the end of the incubation time, the reaction was stopped with an equal volume of 1N NaOH. Ten standards of p-nitrophenol were prepared in DEAM buffer and absorbance was read at 405 nm. Alkaline phosphatase activity is expressed as pmol p-nitrophenol formed/min/mg protein.

SMILES | Agonist/antagonist activity with glucocorticoid receptor [1] | Inhibition of alkaline phosphatase induced by SO-54 and SO-51 ([2]; induction by SO-54 or SO-51, FIG. 11) | Agonist activity, alkaline phosphatase induction [2] | Inhibition of progesterone-stimulated alkaline phosphatase activity ([2]; 1.0 nM progesterone) | Inhibition of R5020-induced alkaline phosphatase activity ([2]; R5020-induced)
CC#C[C@]1(O)CC[C@H]2[C@@H]3CCC4=CC(=O)CCC4=C3[C@@H](c3ccc(N(C)C)cc3)C[C@@]21C [RU-486, reference compound] | significant activity | blocked |  |  | 
C=C1CC[C@@H](Br)C(C)(C)[C@@H]1Cc1cc(OC)c(Br)cc1OC(C)=O [SO-52] | slight agonist activity |  | very weak agonists |  | 
C=C1CC[C@@H](Br)C(C)(C)[C@@H]1Cc1cc(OC)c(Br)cc1O [SO-53, (3R)-cyclocymopol monomethyl ether] | neither agonist nor antagonist activity |  | very weak agonists | attenuated this induction in a concentration-dependent manner; also recorded: attenuated the effects of progesterone in a concentration-dependant manner | effective antagonist of the progesterone mimic

— patent US5808139A (Ligand Pharmaceuticals Incorporated, priority 1994, dated 1998)
